Laboratory results published in patent US4900658A, “Chromophoric peptides for detecting peptidylglycine-α-amidizing monooxygenase” (Hoechst Aktiengesellschaft, priority 1986, dated 1990).
Where a SMILES comes first, the peptide text is derived from it. [ ]: non-standard residue; d: D form. The star is where a group is joined. Dansyl = CN(C)c1cccc2c(S(=O)(=O)*)cccc12

Molecular target: peptidylglycine-α-amidizing monooxygenase (PAM) (Bos taurus, UniProt P10731)
Conditions: after 3 hours
Method: The tests with the substrate, according to the invention, of the formula I (R=Gly--OH) and with the comparison substance of the formula I (R=NH2) were carried out both with the crude fractions and also with the enriched fractions.
Procedure for enzyme assay using the substrate of the formula I (R=Gly--OH) and the reference substance of the formula II (R=NH2)
The enzyme tests are carried out in a buffer of pH 7.4. The aqueous buffer is composed of the buffer substance N-[tris-(hydroxymethyl)-methyl]-2-amino-ethanesulfonic acid (100 mM), CuSO4 (3 μM), peptide substrate of the formula I (R=Gly--OH) (50 μM) and catalase from bovine liver (100 μg/ml). 100 μl of this buffer solution are incubated with 100 μl of the solution containing PAM, and, after 3 hours at 37° C., the reaction is stopped by adding 700 μl of CH2 Cl2. […] After the mixture has been centrifuged and the organic phase removed, the latter is evaporated in a vacuum centrifuge and the residue is again taken up in a constant volume of CH2 Cl2. All operations are carried out with exclusion of light in order to prevent photo-reactions of the light-sensitive substrate. […] Quantification of the resulting amide of the formula I (R=NH2) by means of a thin layer scanner is made possible by simultaneously applying the peptide amide of the formula II in various concentrations as a reference.

peptidylglycine-α-amidizing monooxygenase (PAM), sequence (P10731 31-972): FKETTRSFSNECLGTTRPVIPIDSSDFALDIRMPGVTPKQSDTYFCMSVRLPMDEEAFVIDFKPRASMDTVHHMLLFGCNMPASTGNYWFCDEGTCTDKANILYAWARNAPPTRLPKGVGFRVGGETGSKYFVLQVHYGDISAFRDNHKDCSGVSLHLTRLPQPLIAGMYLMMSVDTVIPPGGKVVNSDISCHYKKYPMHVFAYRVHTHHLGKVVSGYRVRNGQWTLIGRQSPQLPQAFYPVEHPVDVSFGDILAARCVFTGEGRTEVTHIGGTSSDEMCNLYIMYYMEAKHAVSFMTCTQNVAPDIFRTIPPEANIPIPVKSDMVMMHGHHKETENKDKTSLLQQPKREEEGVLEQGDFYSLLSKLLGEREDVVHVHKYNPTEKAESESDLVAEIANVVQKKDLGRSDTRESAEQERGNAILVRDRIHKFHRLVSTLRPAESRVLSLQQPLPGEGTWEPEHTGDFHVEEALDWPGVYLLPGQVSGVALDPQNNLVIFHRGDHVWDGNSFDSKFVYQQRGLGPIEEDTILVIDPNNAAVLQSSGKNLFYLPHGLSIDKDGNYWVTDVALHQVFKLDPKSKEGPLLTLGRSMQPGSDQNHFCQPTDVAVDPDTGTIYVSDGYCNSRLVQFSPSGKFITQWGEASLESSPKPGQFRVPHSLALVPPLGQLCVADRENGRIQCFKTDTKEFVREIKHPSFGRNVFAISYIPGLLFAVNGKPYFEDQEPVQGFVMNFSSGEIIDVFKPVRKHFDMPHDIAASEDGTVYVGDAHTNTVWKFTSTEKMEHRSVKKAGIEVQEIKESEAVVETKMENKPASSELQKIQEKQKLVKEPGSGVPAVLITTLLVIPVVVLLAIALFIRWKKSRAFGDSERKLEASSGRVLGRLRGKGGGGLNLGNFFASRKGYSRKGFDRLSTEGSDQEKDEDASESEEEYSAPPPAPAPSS

C[C@@H](NS(=O)(=O)c1cccc2c(N(C)C)cccc12)C(=O)N1CCC[C@H]1C(=O)NCC(=O)O [DIS-D-Ala--Pro--Gly--OH, DIS--D--Ala--Pro--Gly--OH] (Dansyl-[dA]-Pro-Gly-OH)
Share of the substrate reacted: approx. 5%
